From US20220249622A1, “METHOD FOR PROTECTING BRAIN NEURON CELLS WITH BIOACTIVE COMPOUND” (TCI CO., LTD., priority 2021, published 2022)

Columns and labels:
[1] = tested on: human brain neurons SH-SYSY; assay: Inhibitory effect on brain neuron damage caused by MPP+ (MTT cell viability); format: cell-based; settings: 5 μM MPP+ alone (control group), 48 hours
Experimental: The cells, culture medium, MTT apoptosis detection solution, ELISA reader, and statistical method of cell viability used in this example are the same as in Example 5, and details are not described herein again.
The SII-SYSY cells were seeded at a density of 5×10^3 cells per well into a 96-well culture plate and incubated for 24 hours at 37° C. and 5% CO2.
The culture medium was removed from each well. The SH-SYSY cells were divided into a blank group, a control group, and an experimental group. The fresh culture medium was added into the wells of the blank group. The fresh culture medium containing 5 μM MPP+ was added into the wells of the control group. The fresh culture medium containing 5 μM MPP+ and 1 mg/mL catfish skin collagen peptide powder from Example 1 was added into the wells of the experimental group. Each group was triplicated and incubated at 37° C. for 48 hours.
Then, 15 μL of 5 MTT apoptosis detection solution was added to each group for 3-4 h at 37° C. and 5% CO2.
The culture medium in each well was removed. In each group, 50 μL of DMSO was added to dissolve the purple crystals of formazan. Finally, an absorbance (at 570 nm) of each group was measured by an ELISA reader to analyze the cell viability of each group.
Taking the value of the blank group as 100% of cell viability, each value of the control group and the experimental group was converted into cell viability (%).

[2] = tested on: mouse brain neuroblastoma cells Nero2a; assay: Activity of mitochondria of neuron cells (JC-1 mitochondrial membrane potential assay, flow cytometer); format: cell-based; settings: 24 hours, control group = 100%
Excerpt: 1. Cell strain: mouse brain neuroblastoma. cells Nero2a, from the American Type
Culture Collection (ATCC®, Cat. CCL-131), hereinafter referred to as Nero2a cells.
2. Culture medium: Dulbecco's modified Eagle's medium (DMEM, purchased from Gibco, Cat. 11965-092) containing 10 vol % of Fetal Bovine Serum (FBS, purchased from Gibco, 10437-028) and 3.7 g/L of sodium bicarbonate (purchased from Sigma, S5761-500G).
4. Mitochondrial n embranepotential assay kit (MitoScreen (.IC-1) kit purchased from BD, model 551302): with ,IC-1 dye (lyophilized) and 10× assay buffer. Before use, the assay buffer was diluted 10-fold with 1 PBS solution to form 1× assay buffer, 130 μl of dimethyl sulfoxide (DMSO) was added into the JC-1 dye (lyophilized) to form a JC-1 stock solution. Then, the stock solution was diluted to 1/100 with the 1 × assay buffer to form a JC-1 working reagent
6. Flow cytometer: purchased from BD Pharmingen, model BDTM Accuri C6 Plus.
The Nero2a cells were seeded into a 6-well culture plate at a density of […] cells per well, and 2 ml., of the above-mentioned fresh culture medium was added to each well and incubated for 24 hours at 37° C. and 5% CO2.
Remove the culture medium from each well. The Nero2a cells were divided into a control group and experimental groups 1-5. Control group was added with the fresh culture medium. Experimental group I was added with fresh culture medium containing 50 μg/mL synthesized peptide of SEQ .117 NO :1; experimental group 2 was added with fresh culture medium containing 50 μg/mL synthesized peptide of SEQ ID NO:2; experimental group 3 was added with fresh culture medium containing 50 μg/mL synthesized peptide of SEQ ID NO 3, experimental group 4 was added with fresh culture medium containing 25 μg/mL synthesized peptide of SEQ ID NO:4; and experimental group 5 was added with fresh culture medium containing 1 mg/mL of catfish skin collagen peptide powder from Example. 1. Each group was triplicated and incubated at 37C. for 24 hours.
In each group, the culture medium was removed, and then the cells were washed twice with the PBS solution. Then, 200 μL of trypsin solution was added to react with the cells for 3 min, and 6 mL of fresh culture medium was added to stop the reaction. […]
The cell solution of the control group and the cell solution of each experimental group were analyzed for the activity of mitochondria by using a flow cytometer.
Standard deviations were calculated by an STDEV formula of Excel software, and whether statistically significant differences existed or not was analyzed by one-tail student t-test in the Excel software. […] The p value of each group was calculated compared to the control group. […]

C[n+]1ccc(-c2ccccc2)cc1 [MPP+, 1-methyl-4-phenylpyridin-1-ium]
cell viability ([1]; SH-SYSY cells, blank group = 100%): 86%
cell viability reduced by ([1]; vs blank group): 14%

GRGGFGGRGGFG (listed as Pangasius bocourti) [SEQ ID NO: 3, synthesized peptide, peptide fragment of nucleolin from catfish skin]
relative accumulation of JC-1 ([2]; 50 μg/mL synthesized peptide): 120.95%

LVMGFHPQYL (listed as Pangasius bocourti) [SEQ ID NO: 4, synthesized peptide, peptide fragment of sestrin 1 from catfish skin]
relative accumulation of JC-1 ([2]; 25 μg/mL synthesized peptide): 115.74%

NGTGPQNH (listed as Pangasius bocourti) [SEQ ID NO: 1]
relative accumulation of JC-1 ([2]; 50 μg/mL synthesized peptide): 146.90%

TAELEPLTDG (listed as Pangasius bocourti) [SEQ ID NO: 2, synthesized peptide, peptide fragment of NAD synthetase 1 from catfish skin]
relative accumulation of JC-1 ([2]; 50 μg/mL synthesized peptide): 150,17%
